ChEMBL document CHEMBL1944625, “Design and synthesis of 3,5-diarylpiperidin-2,6-diones as anticonvulsant agents” (Bioorg Med Chem Lett, 2012)

Key:
Mus musculus [1] = test: Anticonvulsant activity in ip dosed Swiss albino mouse assessed as protection against maximal electroshock-induced seizures after 2 hrs; format: functional
Mus musculus [2] = test: Anticonvulsant activity in Swiss albino mouse assessed as protection against maximal electroshock-induced seizures measuring inhibition of extension phase at 25 mg/kg, ip after 2 hrs; format: functional; settings: route intraperitoneal
Mus musculus [3] = organism: Mus musculus; test: Protection index, ratio of TD50 for Swiss albino mouse by rotarod test to ED50 for Swiss albino mouse by maximal electroshock test; format: functional
[4] = Neurotoxicity in ip dosed Swiss albino mouse assessed as impair in motor coordination from 0.5 to 4 hrs post administration by rotarod test; format: toxicity, organism-based; settings: in vivo
Mus musculus [5] = test: Neurotoxicity in Swiss albino mouse assessed as impair in motor coordination at 300 mg/kg, ip after 4 hrs by rotarod test; format: toxicity, organism-based; parameters: dose 300 mg/kg, route intraperitoneal; settings: in vivo
Mus musculus [6] = test: Neurotoxicity in Swiss albino mouse assessed as impair in motor coordination at 300 mg/kg, ip after 0.5 hrs by rotarod test; format: toxicity, organism-based; parameters: dose 300 mg/kg, route intraperitoneal; settings: in vivo
Mus musculus [7] = test: Neurotoxicity in Swiss albino mouse assessed as impair in motor coordination at 100 mg/kg, ip after 0.5 hrs by rotarod test; format: toxicity, organism-based; parameters: dose 100 mg/kg, route intraperitoneal; settings: in vivo

Structure (SMILES)	ED50 (Mus musculus [1]) [mg/kg]	inhibition in vivo at 25 mg/kg (Mus musculus [2]) [%]	Ratio TD50/ED50 (Mus musculus [3])	TD50 [4] [mg/kg]	Activity (Mus musculus [5])	Activity (Mus musculus [6])	Activity (Mus musculus [7])
Cc1ccccc1N1C(=O)C(c2ccccc2)CC(c2ccccc2)C1=O (configuration not stated)	21.5	66.1	4.9	104	Non-toxic	Toxic	
Cc1ccc(N2C(=O)C(c3ccccc3)CC(c3ccccc3)C2=O)cc1 (configuration not stated)	82	43.3	2.3	190	Toxic		Toxic
NC(=O)N1c2ccccc2C=Cc2ccccc21 [CARBAMAZEPINE]	11.8		6.4				
O=C1C(c2ccccc2)CC(c2ccccc2)C(=O)N1Cc1ccccc1 (configuration not stated)	14	64.5	15.6	218	Non-toxic	Non-toxic	
O=C1C(c2ccccc2)CC(c2ccccc2)C(=O)N1c1ccccc1 (configuration not stated)	43.7	38.3	3.7	165	Non-toxic	Toxic	
NN1C(=O)C(c2ccccc2)CC(c2ccccc2)C1=O (configuration not stated)	10	76	12.3	123	Non-toxic	Non-toxic	
O=C1C(c2ccccc2)CC(c2ccccc2)C(=O)N1c1cccc(Cl)c1 (configuration not stated)	> 100	32.2			Non-toxic	Toxic	
O=C1C(c2ccccc2Cl)CC(c2ccccc2Cl)C(=O)N1c1ccccc1 (configuration not stated)	61.4	40.6	3.2	198	Non-toxic	Non-toxic	
CN1C(=O)C(c2ccccc2Cl)CC(c2ccccc2Cl)C1=O (configuration not stated)	23.7	61.7	9.2	220	Toxic		Toxic
O=C1NC(=O)C(c2ccccc2Cl)CC1c1ccccc1Cl (configuration not stated)	25.5	58.3	7	175	Non-toxic	Non-toxic	
O=C1C(c2ccccc2Cl)CC(c2ccccc2Cl)C(=O)N1Cc1ccccc1 (configuration not stated)	38.3	58.2	2.7	106	Non-toxic	Non-toxic	
O=C1NC(=O)C(c2ccccc2)CC1c1ccccc1 (configuration not stated)	11	70.2	17.5	193	Non-toxic	Non-toxic	
O=C1N=C(O)NC1(c1ccccc1)c1ccccc1 [PHENYTOIN SODIUM]		80.7					
O=C1C(c2ccccc2Cl)CC(c2ccccc2Cl)C(=O)N1c1cccc(Cl)c1 (configuration not stated)	60.2	43.7	1.8	108	Non-toxic	Non-toxic	
NN1C(=O)C(c2ccccc2Cl)CC(c2ccccc2Cl)C1=O (configuration not stated)	11.2	73.3	10.6	117	Toxic	Toxic	
Cc1ccc(N2C(=O)C(c3ccccc3Cl)CC(c3ccccc3Cl)C2=O)cc1 (configuration not stated)	41.2	58.2	2.1	86.5	Non-toxic	Toxic	
CN1C(=O)C(c2ccccc2)CC(c2ccccc2)C1=O (configuration not stated)	14.8	69.1	21.8	323	Toxic		Toxic
Cc1ccccc1N1C(=O)C(c2ccccc2Cl)CC(c2ccccc2Cl)C1=O (configuration not stated)	27.4	60.6	8.3	227	Non-toxic	Non-toxic	
